The supplement of paper PMC10290057
Where a name gives a salt, the structure may show the parent alone.

Tested on: HCT116
Assay: efficacy (fitted maximal change in viability relative to DMSO control); higher = less cytotoxic (negative = loss of viability)
Conditions: 48 h
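Further: Luminescence-based viability readout, five doses per compound, normalized against on-plate DMSO and empty-well controls, followed by dose-response curve fitting for every drug.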

First: COc1ccc(Nc2nccc(NCCO)n2)cc1 [Cardiogenol]
Second: CCN(CC)CCN1C(=O)\C(=N/C2=CC=CC=C12)CC3=CC=C(OC)C=C3 [Caroverine]
The efficacy of the first is higher: -11.7% for the first, -15.9% for the second.

First: O=NN(CCCl)C(=O)NCCCl [Carmustine]
Second: CN(C)NC(=O)CCC(=O)O [Daminozide]
The efficacy of the first is lower: -15.1% for the first, -8.97% for the second.

Going from CC(C)C[C@H](NC(=O)[C@H](Cc1ccccc1)NC(=O)OCc1ccccc1)C(=O)C=O [Cathepsin S Inhibitor] to CN(Cc1ccccc1)C(=O)c1ccc([S+](=O)([O-])Nc2ccccc2)cc1 [Compound 2], the efficacy rises from -64.5% to -20.4%.

Compared with CCN1CCN(C(=O)N[C@@H](C(=O)N[C@H]2[C@H]3SC\C(=C(/N3C2=O)C(O)=O)CSC4=NN=N[N]4C)C5=CC=C(O)C=C5)C(=O)C1=O [Cefoperazone (sodium salt)], CN[C@@H](C)C(=O)N[C@@H]1C(=O)N(Cc2c(C)ccc3ccccc23)c2ccc(C#N)cc2N(C(C)=O)[C@H]1C [Compound 36] is lower in efficacy: -15.8% for the first, -26% for the second.

First: Cc1nnc(C(C)C)n1C1CC2CCC(C1)N2CCC(NC(=O)C1CCC(F)(F)CC1)c1ccccc1 (stereo unspecified) [Celsentri (Maraviroc)]
Second: C[C@H](CCC(=O)O)[C@H]1CC[C@H]2[C@@H]3[C@H](O)C[C@@H]4C[C@H](O)CC[C@]4(C)[C@H]3CC[C@]12C [Chenodeoxycholic acid]
The efficacy of the first is higher: 17% for the first, -16% for the second.

Going from CC[S+](=O)([O-])N1CCN(c2ccc(Nc3ncc(C(N)=O)c(NC4CC4)n3)cc2)CC1 [Cerdulatinib] to Cn1c(CNc2ccc(C(=N)N)cc2)nc2cc(C(=O)N(CCC(=O)O)c3ccccn3)ccc21 [Dabigatran], the efficacy rises from -88.9% to -8.84%.

First: COc1ccc2c(c[n+](C)c3c4cc5c(cc4ccc23)OCO5)c1OC [Chelerythrine chloride]
Second: NC(=O)c1ccc(-c2nc(-c3ccc4c(c3)OCCO4)c(-c3ccccn3)[nH]2)cc1 [D-4476]
The efficacy of the first is higher: -83.2% for the first, -84.9% for the second.

Compared with CCN(CC)CCCC(C)Nc1ccnc2cc(Cl)ccc12 (stereo unspecified) [Chloroquine], CN(C)CCCN1c2ccccc2CCc2ccc(Cl)cc21 [Clomipramine hydrochloride] is lower in efficacy: -24.3% for the first, -84.3% for the second.

Compared with N[S+]([O-])(=O)C1=C(Cl)C=C2\N=C/N[S+]([O-])(=O)C2=C1 [Chlorothiazide], COC(=O)[C@H](c1ccccc1Cl)N1CCc2sccc2C1 [Clopidogrel bisulfate] is lower in efficacy: -4.38% for the first, -22.3% for the second.

Going from Cc1cc(O)c2c(c1)C(=O)c1cccc(O)c1C2=O [Chrysophanol] to OC1=CC=C(C=C1)\C2=C\OC3=C(C=CC(=C3)O)C2=O [Daidzein], the efficacy rises from -8.65% to 12.4%.

Compared with NC/1=N/C(=O)N(C[C@@H](CO)OC[P](O)(O)=O)/C=C1 [Cidofovir], NC\1=N\C(=O)N(\C=C1)[C@@H]2O[C@H](CO)[C@@H](O)[C@H]2O [Cytidine] is lower in efficacy: 7.03% for the first, -11.1% for the second.

First: CC(C)[C@H]1C(=O)N[C@@H](CCCN=C(N)N)C(=O)NCC(=O)N[C@@H](CC(=O)O)C(=O)N[C@H](Cc2ccccc2)C(=O)N1C [Cilengitide]
Second: COc1ccc(CCN2CCN(CCCc3ccccc3)CC2)cc1OC [Cutamesine hydrochloride]
The efficacy of the first is higher: -11% for the first, -28.5% for the second.

Compared with O=C1CCc2cc(OCCCCc3nnnn3C3CCCCC3)ccc2N1 [Cilostazol], O=C(O)c1ccc(CCCc2ccc(OCCc3ccc(F)cc3)cc2)o1 [D-942] is lower in efficacy: -26.7% for the first, -66.5% for the second.

Going from O=C(O)CCCCN(CCc1ccccc1OCc1ccc(CCc2ccccc2)cc1)Cc1ccc(C(=O)O)cc1 [Cinaciguat] to OC[C@H]1O[C@@H](OC2=CC3=C(C=C2)C(=O)\C(=C/O3)C4=CC=C(O)C=C4)[C@H](O)[C@@H](O)[C@@H]1O [Daidzin], the efficacy falls from -11.7% to -23.3%.

First: C=C[C@H]1CN2CCC1C[C@@H]2[C@@H](O)c1ccnc2ccccc12 (stereo partly specified) [Cinchonine dihydrochloride]
Second: O=C1\C=C/C=C2/[C@H]3CNC[C@H](C3)CN12 [Cytisine]
The efficacy of the first is lower: -36.1% for the first, -21.9% for the second.

First: CC(C)(Oc1ccc(C2CC2(Cl)Cl)cc1)C(=O)O (stereo unspecified) [Ciprofibrate]
Second: C/C=C/C(=O)N(CC)c1ccccc1C [Crotamiton]
The efficacy of the first is lower: -6.71% for the first, 6.9% for the second.

Compared with [NH2][Pt]([NH2])([Cl])[Cl] [Cisplatin], Nc1cc(c(cc1S(=O)(N)=O)S(N)(=O)=O)C(/Cl)=C(/Cl)Cl [Clorsulon] is higher in efficacy: -25% for the first, -7.71% for the second.

First: CCC[C@@H]1C[C@@H](C(=O)N[C@@H]([C@H]2O[C@H](SC)[C@H](O)[C@@H](O)[C@H]2O)[C@H](C)Cl)N(C)C1 [Clindamycin HCl]
Second: CCCCCCCCCCCCCCCC(=O)O[C@@H]1[C@@H](O)[C@@H](O)[C@@H]([C@H](NC(=O)[C@@H]2C[C@@H](CCC)CN2C)[C@H](C)Cl)O[C@@H]1SC.Cl [Clindamycin palmitate]
The efficacy of the first is higher: -14.1% for the first, -24.9% for the second.

First: CCC(=O)O[C@@]1([C@@H](C)C[C@H]2[C@@H]3CCC/4=C/C(=O)/C=C\[C@]4(C)[C@@]3(F)[C@@H](O)C[C@]12C)C(=O)CCl [Clobetasol propionate]
Second: CC(=O)O[C@@]1(CC[C@H]2[C@@H]3\C=C(Cl)/C4=C/C(=O)[C@@H]5C[C@@H]5[C@]4(C)[C@H]3CC[C@]12C)C(C)=O [Cyproterone acetate]
The efficacy of the first is higher: -57.1% for the first, -60.6% for the second.

Compared with Nc1nc(Cl)nc2c1ncn2[C@@H]1O[C@H](CO)[C@@H](O)[C@@H]1F [Clofarabine], Nc1ncnc2c1ncn2[C@@H]1O[C@H](CO)C[C@H]1O [Cordycepin] is higher in efficacy: -51.1% for the first, -20.6% for the second.

Going from COC1=C(OC)C(=O)C(C/C=C(\C)CC/C=C(\C)CC/C=C(\C)CC/C=C(/C)CC/C=C(\C)CC/C=C(\C)CC/C=C(\C)CC/C=C(\C)CC/C=C(\C)CCC=C(C)C)=C(C)C1=O [Coenzyme Q10] to C[C@@H]1C[C@H]2[C@@H]3\C=C(C)/C4=C/C5=C(C[C@]4(C)[C@H]3[C@@H](O)C[C@]2(C)[C@@]1(O)C(=O)COC(C)=O)C=N[N]5C6=CC=CC=C6 [Cortivazol], the efficacy falls from 7.5% to -25.2%.

Going from CC(=O)OCC(=O)[C@@]1(O)CC[C@H]2[C@@H]3CCC/4=C/C(=O)CC[C@]4(C)[C@H]3C(=O)C[C@]12C [Cortisone acetate] to CN[C@@H](C)[C@H]1[C@H](O)C[C@@]2(C)[C@@H]3CC[C@H]4C(C)(C)[C@@H](NC)CC[C@@]45C[C@@]35CC[C@]12C [Cyclovirobuxin D], the efficacy falls from 22.5% to -29.5%.

First: C[C@H]1COC/2=C1/C(=O)C(=O)C3=C4CCCC(C)(C)C4=CC=C23 [Cryptotanshinone]
Second: CCC(CC)CC1(C(=O)Nc2ccccc2SC(=O)C(C)C)CCCCC1 [Dalcetrapib]
The efficacy of the first is lower: -30% for the first, -17.1% for the second.

Compared with C=C1C[C@@]2(O)O[C@@]3(C[C@H]2C(C)C)[C@@H](C)CC[C@@H]13 [Curcumol], COC(=O)N[C@H](C(=O)N1CCC[C@H]1c1ncc(-c2ccc(-c3ccc(-c4cnc([C@@H]5CCCN5C(=O)[C@@H](NC(=O)OC)C(C)C)[nH]4)cc3)cc2)[nH]1)C(C)C [Daclatasvir dihydrochloride] is lower in efficacy: -14.1% for the first, -112% for the second.

First: CC(C)C(N)C(=O)OCC(CO)OC[N]1C=NC2=C1N\C(=N/C2=O)N (stereo unspecified) [Cymeval]
Second: CC(C)(C)c1nc(-c2cccc(N[S+](=O)([O-])c3c(F)cccc3F)c2F)c(-c2ccnc(N)n2)s1 [Dabrafenib]
The efficacy of the first is higher: -19.5% for the first, -29.3% for the second.

Molecule N[C@@H]1CONC1=O [D-Cycloserine] has an efficacy of -29.8%.
